From patent US9670208B2, “Serine/threonine kinase inhibitors” (Array BioPharma Inc., priority 2013, dated 2017)

Key:
[1] = molecular target: human ERK-2 (Mitogen Activated Kinase 1) (Homo sapiens (Human), UniProt P28482); experiment: ERK-2 Enzymatic Assay; assay type: biochemical; settings: ERK-2 enzyme, 25 μM ATP; single assay or mean of multiple assays; read-out: Biological Example 1 IC50
[2] = test system: PMA-stimulated P90RSK(Ser380) phosphorylation in HepG2 cells; experiment: Cellular P90RSK(Ser380) Phosphorylation Assay; assay type: cell-based; settings: Homo sapiens, 1.5 hours compound incubation, PMA 100 ng/mL, normalized to GAPDH, single assay or mean of multiple assays, read-out: Biological Example 2 IC50
Experimental: Inhibition of PMA-stimulated P90RSK(Ser380) phosphorylation was determined by the following in vitro cellular mechanistic assay, which comprises incubating cells with a compound for 1.5 hours and quantifying fluorescent pP90RSK(Ser380) signal on fixed cells and normalizing to GAPDH signal.
HepG2 cells were obtained from ATCC (Manassas, Va.) and grown in DMEM supplemented with 10% fetal bovine serum. Cells were plated in 96-well plates at 35,000 cells/well and allowed to attach overnight at 37° C./5% CO2. Diluted compounds were then added at a final concentration of 0.5% DMSO. After 1.5 hours compound incubation, cells were stimulated with the addition of phorbol 12-myristate 13-acetate (“PMA”) at a final concentration of 100 ng/mL; the PMA stimulation was a 30-minute incubation at 37° C./5% CO2. After the 30-minute PMA stimulation, cells were washed with phosphate buffered saline (“PBS”) and fixed in 3.7% formaldehyde in PBS at room temperature for 15-20 minutes. This was followed by another wash in PBS and then permeabilization in 100% MeOH at room temperature for 10-15 minutes. Following the permeabilization incubation, cells were washed in PBS/0.05% Tween-20, followed by a block in Odyssey blocking buffer (LI-COR Biosciences) for at least 1 hour. Antibodies to phosphorylated P90RSK(Ser380) (Cell Signaling #9335, rabbit monoclonal) and GAPDH (Fitzgerald 10R-G109a, mouse monoclonal) were added to the cells and incubated overnight at 4° C. pP90RSK(Ser380) antibody was used at a 1:250 dilution; GAPDH was used at a 1:10,000 dilution. After washing with PBS/0.05% Tween-20, the cells were incubated with fluorescently-labeled secondary antibodies (Anti-rabbit-Alexa Flour680, Invitrogen Cat#A21109; Anti-mouse-IRDye800CW, Rockland Inc. Cat#610-131-121) for 1 hour. Both secondary antibodies were used at a 1:1000 dilution. Cells were then washed and analyzed for fluorescence at both wavelengths using the Odyssey Infrared Imaging System (LI-COR Biosciences). Phosphorylated P90RSK(Ser380) signal was normalized to GAPDH signal.

human ERK-2 (Mitogen Activated Kinase 1), sequence (P28482 8-360): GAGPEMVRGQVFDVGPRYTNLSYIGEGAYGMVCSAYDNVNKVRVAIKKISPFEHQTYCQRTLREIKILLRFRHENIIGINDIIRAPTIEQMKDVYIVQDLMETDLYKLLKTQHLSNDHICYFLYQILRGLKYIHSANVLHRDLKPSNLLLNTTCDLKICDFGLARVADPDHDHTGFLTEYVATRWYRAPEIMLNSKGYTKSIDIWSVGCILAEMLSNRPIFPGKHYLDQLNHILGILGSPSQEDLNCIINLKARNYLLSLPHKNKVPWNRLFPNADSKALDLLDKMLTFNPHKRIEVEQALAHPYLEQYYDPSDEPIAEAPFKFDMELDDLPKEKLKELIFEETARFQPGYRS

| IC50 [1] [nM] | SMILES | IC50 [2] [nM] |
| --- | --- | --- |
| 0.8 | CCOc1ccc(Cc2nnc3cc(-c4ccnc(Nc5ccnn5C)n4)ccn23)cn1 [Example 493, 4-(3-((6-ethoxypyridin-3-yl)methyl)-[1,2,4]triazolo[4,3-a]pyridin-7-yl)-N-(1-methyl-1H-pyrazol-5-yl)pyrimidin-2-amine] | 117 |
| 3.5 | Cn1nccc1Nc1nccc(-c2ccn3c(CSC4CCCC4)nnc3c2)n1 [Example 307, 4-(3-((cyclopentylthio)methyl)-[1,2,4]triazolo[4,3-a]pyridin-7-yl)-N-(1-methyl-1H-pyrazol-5-yl)pyrimidin-2-amine] | 32.2 |
| 0.9 | COc1ccc(Cc2nnc3cc(-c4ccnc(NC5CCOCC5)n4)ccn23)cn1 [Example 272, 4-(3-((6-methoxypyridin-3-yl)methyl)-[1,2,4]triazolo[4,3-a]pyridin-7-yl)-N-(tetrahydro-2H-pyran-4-yl)pyrimidin-2-amine] | 95.4 |
| 3.3 | Cn1nccc1Nc1nccc(-c2ccn3c([C@H](O)c4cccc(Cl)c4)nnc3c2)n1 [Example 116, (R)-(3-chlorophenyl)(7-(2-((1-methyl-1H-pyrazol-5-yl)amino)pyrimidin-4-yl)-[1,2,4]triazolo[4,3-a]pyridin-3-yl)methanol] | 19.3 |
| 1.8 | CC(=O)NC(Cc1nnc2cc(-c3ccnc(Nc4ccnn4C)n3)ccn12)c1ccc(F)c(Cl)c1 (stereo not shown) [Example 467, N-(1-(3-chloro-4-fluorophenyl)-2-(7-(2-((1-methyl-1H-pyrazol-5-yl)amino)pyrimidin-4-yl)-[1,2,4]triazolo[4,3-a]pyridin-3-yl)ethyl)acetamide] | 3350 |
| 7.5 | O=C(c1c(F)cccc1F)N1CCOC(c2nnc3cc(-c4ccnc(NC5CCOCC5)n4)ccn23)C1 (stereo not shown) [Example 140, (2,6-difluorophenyl)(2-(7-(2-((tetrahydro-2H-pyran-4-yl)amino)pyrimidin-4-yl)-[1,2,4]triazolo[4,3-a]pyridin-3-yl)morpholino)methanone] | 486 |
| 1.8 | Cn1nccc1Nc1nccc(-c2ccn3c(CS(=O)(=O)c4ccccc4)nnc3c2)n1 [Example 306, N-(1-methyl-1H-pyrazol-5-yl)-4-(3-((phenylsulfonyl)methyl)-[1,2,4]triazolo[4,3-a]pyridin-7-yl)pyrimidin-2-amine] | 63.7 |
| 2.8 | COc1ccc(Cc2nnc3cc(-c4nc(NC5CCOCC5)ncc4F)ccn23)cc1 [Example 123, 5-fluoro-4-(3-(4-methoxybenzyl)-[1,2,4]triazolo[4,3-a]pyridin-7-yl)-N-(tetrahydro-2H-pyran-4-yl)pyrimidin-2-amine] | 25.6 |
| 5.4 | CN(C)C(c1ccc(F)cc1)c1nnc2cc(-c3ccnc(Nc4ccnn4C)n3)ccn12 (stereo not shown) [Example 377, 4-(3-((dimethylamino)(4-fluorophenyl)methyl)-[1,2,4]triazolo[4,3-a]pyridin-7-yl)-N-(1-methyl-1H-pyrazol-5-yl)pyrimidin-2-amine] | 82.9 |
| 2.7 | CC(C)Cc1nnc2cc(-c3ccnc(Nc4ccnn4C)n3)ccn12 [Example 169, 4-(3-isobutyl-[1,2,4]triazolo[4,3-a]pyridin-7-yl)-N-(1-methyl-1H-pyrazol-5-yl)pyrimidin-2-amine] | 30 |
| 0.6 | Fc1ccc(Cc2nnc3cc(-c4ccnc(NC5CCOCC5)n4)ccn23)cc1 [Example 402, 4-(3-(4-fluorobenzyl)-[1,2,4]triazolo[4,3-a]pyridin-7-yl)-N-(tetrahydro-2H-pyran-4-yl)pyrimidin-2-amine] | 27.4 |
| 661 | Cn1nccc1Nc1nccc(-c2ccn3c(CC(C)(O)C4CC4)nnc3c2)n1 (stereo not shown) [Example 563, 2-cyclopropyl-1-(7-(2-((1-methyl-1H-pyrazol-5-yl)amino)pyrimidin-4-yl)-[1,2,4]triazolo[4,3-a]pyridin-3-yl)propan-2-ol] | > 5000 |
| 5.7 | CCC=Cc1nnc2cc(-c3ccnc(Nc4ccnn4C)n3)ccn12 (stereo in doubt) [Example 258, (E)-4-(3-(but-1-en-1-yl)-[1,2,4]triazolo[4,3-a]pyridin-7-yl)-N-(1-methyl-1H-pyrazol-5-yl)pyrimidin-2-amine] | 178 |
| 0.8 | COc1ccc(Cc2nnc3cc(-c4ccnc(Nc5ccnn5C)n4)ccn23)cc1 [Example 49, 4-(3-(4-methoxybenzyl)-[1,2,4]triazolo[4,3-a]pyridin-7-yl)-N-(1-methyl-1H-pyrazol-5-yl)pyrimidin-2-amine] | 6.6 |
| 197 | COc1ncc(F)cc1CN1CCCC(c2nnc3cc(-c4ccnc(NC5CCOCC5)n4)ccn23)C1 (stereo not shown) [Example 132, 4-(3-(1-((5-fluoro-2-methoxypyridin-3-yl)methyl)piperidin-3-yl)-[1,2,4]triazolo[4,3-a]pyridin-7-yl)-N-(tetrahydro-2H-pyran-4-yl)pyrimidin-2-amine] | > 5000 |
| 172 | Cn1nccc1Nc1nccc(-c2ccn3c(C(=O)N4CCCC4)nnc3c2)n1 [Example 512, (7-(2-((1-methyl-1H-pyrazol-5-yl)amino)pyrimidin-4-yl)-[1,2,4]triazolo[4,3-a]pyridin-3-yl)(pyrrolidin-1-yl)methanone] | > 5000 |
| 3.4 | COC(Cc1nnc2cc(-c3ccnc(Nc4ccnn4C)n3)ccn12)C(F)(F)F (stereo not shown) [Example 108, N-(1-methyl-1H-pyrazol-5-yl)-4-(3-(3,3,3-trifluoro-2-methoxypropyl)-[1,2,4]triazolo[4,3-a]pyridin-7-yl)pyrimidin-2-amine] | 38.2 |
| 171 | CN1C(=O)CC(c2ccccc2)C1c1nnc2cc(-c3ccnc(NC4CCOCC4)n3)ccn12 (stereo not shown) [Example 136, 1-methyl-4-phenyl-5-(7-(2-((tetrahydro-2H-pyran-4-yl)amino)pyrimidin-4-yl)-[1,2,4]triazolo[4,3-a]pyridin-3-yl)pyrrolidin-2-one] | – |
| 2.6 | Cn1nccc1Nc1nccc(-c2ccn3c(Cc4cccc(F)c4F)nnc3c2)n1 [Example 51, 4-(3-(2,3-difluorobenzyl)-[1,2,4]triazolo[4,3-a]pyridin-7-yl)-N-(1-methyl-1H-pyrazol-5-yl)pyrimidin-2-amine] | 8.9 |
| 0.9 | Cn1nccc1Nc1cc(-c2ccn3c([C@H](O)Cc4ccccc4)nnc3c2)ccn1 [Example 121, (R)-1-(7-(2-((1-methyl-1H-pyrazol-5-yl)amino)pyridin-4-yl)-[1,2,4]triazolo[4,3-a]pyridin-3-yl)-2-phenylethanol] | 34.7 |
| 2.4 | Cn1nccc1Nc1nccc(-c2ccn3c(CC45CC6CC(CC(C6)C4)C5)nnc3c2)n1 [Example 379, 4-(3-((1s,3s)-adamantan-1-ylmethyl)-[1,2,4]triazolo[4,3-a]pyridin-7-yl)-N-(1-methyl-1H-pyrazol-5-yl)pyrimidin-2-amine] | 24.7 |
| 0.8 | Cn1nccc1Nc1nccc(-c2ccn3c(Cc4cc(C5CC5)ccn4)nnc3c2)n1 [Example 35, 4-(3-((4-cyclopropylpyridin-2-yl)methyl)-[1,2,4]triazolo[4,3-a]pyridin-7-yl)-N-(1-methyl-1H-pyrazol-5-yl)pyrimidin-2-amine] | 17 |
| 2.8 | Cn1nccc1Nc1nccc(-c2ccn3c(Cc4ccc(F)cc4F)nnc3c2)n1 [Example 67, 4-(3-(2,4-difluorobenzyl)-[1,2,4]triazolo[4,3-a]pyridin-7-yl)-N-(1-methyl-1H-pyrazol-5-yl)pyrimidin-2-amine] | 7.5 |
| 0.8 | c1ccc(Cc2nnc3cc(-c4ccnc(NC5CCOCC5)n4)ccn23)nc1 [Example 278, 4-(3-(pyridin-2-ylmethyl)-[1,2,4]triazolo[4,3-a]pyridin-7-yl)-N-(tetrahydro-2H-pyran-4-yl)pyrimidin-2-amine] | 67.6 |
| 117 | c1cc(-c2ccn3c(C4CNCCO4)nnc3c2)nc(NC2CCOCC2)n1 (stereo not shown) [Example 387, 4-(3-(morpholin-2-yl)-[1,2,4]triazolo[4,3-a]pyridin-7-yl)-N-(tetrahydro-2H-pyran-4-yl)pyrimidin-2-amine] | – |
| 135 | Cc1cc(-c2nnc3cc(-c4ccnc(Nc5cnn(C)c5)n4)ccn23)nn1-c1ccc(F)cc1 [Example 419, 4-(3-(1-(4-fluorophenyl)-5-methyl-1H-pyrazol-3-yl)-[1,2,4]triazolo[4,3-a]pyridin-7-yl)-N-(1-methyl-1H-pyrazol-4-yl)pyrimidin-2-amine] | – |
